This note sets out measurements from patent US20150166533A1, “NOVEL 1,3-DIHYDRO-2H-BENZIMIDAZOL-2-ONE DERIVATIVES SUBSTITUTED WITH BENZIMIDAZOLES AS RESPIRATORY SYNCYTIAL VIRUS ANTIVIRAL AGENTS” (Janssen R&D Ireland, priority 2012, published 2015).

Like-named read-outs stand apart in the source and are kept apart here. Some results are limits rather than exact numbers.

For one data set, the system named is HeLa cells. As to the kind of experiment: Cytotoxicity in HeLa cells, ATP content (ATPlite kit). Format: cell-based. Conditions: three days incubation, read-out: Tox CC50. As to the method:
(§1) The EC50 was defined as the 50% inhibitory concentration for GFP expression. In parallel, compounds were incubated for three days in a set of white 96-well microtitier plates (Corning) and the cytotoxicity of compounds in HeLa cells was determined by measuring the ATP content of the cells using the ATPlite kit (PerkinElmer, Zaventem, Belgium) according to the manufacturer's instructions. The CC50 was defined as the 50% concentration for cytotoxicity.
On the technique in general: In ATP-based viability assays light output follows the ATP content of the culture.

Another data set relates to rgRSV224 virus. As to the kind of experiment: Antiviral activity: inhibition of rgRSV224 replication (GFP expression) in HeLa cells. Type of data set: cell-based, respiratory syncytial virus (RSV). Conditions: read-out: WT activity EC50. As to the method: Black 96-well clear-bottom microtiter plates (Corning, Amsterdam, The Netherlands) were filled in duplicate using a customized robot system with serial 4-fold dilutions of compound in a final volume of 50 μl culture medium [RPMI medium without phenol red, 10% FBS, 0.04% gentamycin (50 mg/ml) and 0.5% DMSO]. Then, 100 μl of a HeLa cell suspension (5×10^4 cells/ml) in culture medium was added to each well followed by the addition of 50 μl rgRSV224 (MOI=0.02) virus in culture medium using a multidrop dispenser (Thermo Scientific, Erembodegem, Belgium). rgRSV224 virus is an engineered virus that includes an additional GFP gene (Hallak et al, 2000) and was in-licensed from the NIH (Bethesda, Md., USA). Medium, virus- and mock-infected controls were included in each test. Cells were incubated at 37° C. in a 5% CO2 atmosphere. Three days post-virus exposure, viral replication was quantified by measuring GFP expression in the cells by a MSM laser microscope (Tibotec, Beerse, Belgium).
as §1
Compounds were tested for RSV inhibitory activity. The results are depicted in the Table below (n.d. means not determined): […]

Data set [1] can be described thus: Cytotoxicity in HeLa cells, ATP content (ATPlite kit). Format: cell-based. The settings on record: human, three days incubation, read-out: Tox CC50. As to the method:
as §1

Setting [2] is: human respiratory syncytial virus, HeLa, 72 h.

By CC50 is commonly meant the concentration at which the toxic effect on the cells reaches its halfway point. What is called EC50 is the midpoint of the concentration-response curve. For “3-((5-chloro-1-(4-fluorobutyl)-1H-benzo[d]imidazol-2-yl)methyl)-1-(tetrahydrofuran-3-yl)-1H-imidazo[4,5-c]pyridin-2(3H)-one [Compound P10]”, the CC50 in the data set on HeLa cells is > 100000 nM. In the data set with rgRSV224 virus (rgRSV224 (MOI=0.02) in HeLa cells, GFP expression three days post-virus exposure), the EC50 turned out to be 15 nM.

As to `CC(C)(C)OC(=O)N1CC(n2c(=O)n(Cc3nc4cc(Cl)ccc4n3CCCS(C)(=O)=O)c3ccccc32)C1` [Compound P1, tert-butyl-3-(3-((5-chloro-1-(3-(methyl-sulfonyl)propyl)-1H-bezon[d]imidazol-2-yl)methyl)-2-oxo-2,3-dihydro-1H-imidazo[d]imidazol-1-yl)azetidine-1-carboxylate], the CC50 at 3 days in data set [1] is > 100000 nM. For the same molecule, in the data set on rgRSV224 virus (setting [2]), the EC50 stood at 0.68 nM.

One may read the melting point as the temperature of the solid-liquid transition. Molecule `CC(C)(C)n1c(=O)n(Cc2nc3cc(Cl)ccc3n2CCCS(C)(=O)=O)c2cnccc21` [Compound P2, 1-tert-butyl-3-((5-chloro-1-(3-(methyl-sulfonyl)propyl)-1H-benzo[d]imidazol-2-yl)methyl)-1H-imidazo[4,5-c]pyridin-2(3H)-one] registered a melting point of 197 °C. Moreover, the CC50 at 3 days in data set [1] is > 100000 nM. Besides, the EC50 in the data set with rgRSV224 virus (setting [2]) was 0.39 nM.

For `CC1(n2c(=O)n(Cc3nc4cc(Cl)ccc4n3CCCS(C)(=O)=O)c3cnccc32)CC1` [Compound P3], in data set [1], the CC50 at 3 days was > 100000 nM. The EC50 in the data set with rgRSV224 virus (setting [2]) amounted to 0.25 nM.

In the case of `O=c1n(Cc2nc3cc(Cl)ccc3n2CCCCF)c2cnccc2n1-c1ccc(F)cc1` [Compound P4, 3-((5-chloro-1-(4-fluorobutyl)-1H-benzo[d]imidazol-2-yl)methyl)-1-(4-fluorophenyl)-1H-imidazo[4,5-c]pyridin-2(3H)-one], the melting point came out at 180 °C. The 50% cytotoxic concentration (CC50) at 3 days in data set [1] was > 100000 nM. Moreover, in the data set with rgRSV224 virus (setting [2]), the EC50 came to 0.3 nM.

For the molecule `COc1ccc(-n2c(=O)n(Cc3nc4cc(Cl)ccc4n3CCCCF)c3cnccc32)cc1` [Compound P5, 3-((5-chloro-1-(4-fluorobutyl)-1H-benzo[d]imidazol-2-yl)methyl)-1-(4-methoxyphenyl)-1H-imidazo[4,5-c]pyridin-2(3H)-one], the melting point came out at 167 °C. In data set [1], the CC50 at 3 days was > 100000 nM. Further, the EC50 in the data set on rgRSV224 virus (setting [2]) is < 0.1 nM.

On to `O=c1n(Cc2nc3cc(Cl)ccc3n2CCCCF)c2cnccc2n1-c1ccc(F)nc1` [Compound P6, 3-((5-chloro-1-(4-fluorobutyl)-1H-benzo[d]imidazol-2-yl)methyl)-1-(6-fluoropyridin-3-yl)-1H-imidazo[4,5-c]pyridin-2(3H)-one], for which the melting point came to 208 °C. The CC50 at 3 days in data set [1] was > 100000 nM. Moreover, the EC50 in the data set on rgRSV224 virus (setting [2]) was 0.79 nM.

`COc1ccc(-n2c(=O)n(Cc3nc4cc(Cl)ccc4n3CCCS(C)(=O)=O)c3cnccc32)cc1` [Compound P7, 3-((5-chloro-1-(3-(methylsulfonyl)propyl)-1H-benzo[d]imidazol-2-yl)-methyl)-1-(4-methoxyphenyl)-1H-imidazo[4,5-c]pyridin-2(3H)-one] displayed a melting point of 250 °C. Also, in data set [1], the half-maximal cytotoxic concentration (CC50) at 3 days is > 100000 nM. The EC50 in the data set with rgRSV224 virus (setting [2]) turned out to be 0.05 nM.

Regarding `O=c1n(Cc2nc3cc(Cl)ccc3n2CCCCF)c2cnccc2n1-c1nccs1` [Compound P8, 3-((5-chloro-1-(4-fluororbutyl)-1H-benzo[d]imidazol-2-yl)methyl)-1-(thiazol-2-yl)-1H-imidazo[4,5-c]pyridin-2(3H)-one], the melting point was determined as 206 °C. The CC50 at 3 days in data set [1] is > 100000 nM. For the same molecule, the EC50 in the data set with rgRSV224 virus (setting [2]) was 0.19 nM.

`O=c1n(Cc2nc3cc(Cl)ccc3n2CCCCF)c2cnccc2n1-c1ccc2ncccc2c1` [Compound P9, 3-((5-chloro-1-(4-fluororbutyl)-1H-benzo[d]imidazol-2-yl)methyl)-1-(quinolin-6-yl)-1H-imidazo[4,5-c]pyridin-2(3H)-one] showed a melting point of 231 °C. Besides, the CC50 at 3 days in data set [1] is > 100000 nM. Moreover, the EC50 in the data set with rgRSV224 virus (setting [2]) turned out to be 0.25 nM.
